Molecular target: D184A mutant CB1 receptor (Homo sapiens, UniProt P21554, D184A)
Assay: Methanandamide competition binding with [3H]CP55940 as tracer
Conditions: [3H]CP55940 tracer

Chain of D184A mutant CB1 receptor (P21554 whole entry D184A): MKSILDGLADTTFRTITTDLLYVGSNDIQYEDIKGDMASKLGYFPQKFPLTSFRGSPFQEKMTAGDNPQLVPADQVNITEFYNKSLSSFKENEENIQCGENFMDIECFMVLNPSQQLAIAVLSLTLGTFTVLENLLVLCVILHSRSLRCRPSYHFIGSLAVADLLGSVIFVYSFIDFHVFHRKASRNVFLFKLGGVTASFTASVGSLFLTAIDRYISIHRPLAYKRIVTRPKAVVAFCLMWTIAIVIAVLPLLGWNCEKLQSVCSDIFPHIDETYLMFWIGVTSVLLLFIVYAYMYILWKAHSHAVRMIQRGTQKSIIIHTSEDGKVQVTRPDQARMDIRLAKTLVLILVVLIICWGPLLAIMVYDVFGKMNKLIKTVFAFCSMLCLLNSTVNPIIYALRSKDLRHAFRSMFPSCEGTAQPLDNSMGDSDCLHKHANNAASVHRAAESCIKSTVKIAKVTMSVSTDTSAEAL

CCCCC/C=C\C/C=C\C/C=C\C/C=C\CCCC(=O)N[C@H](C)CO [methanandamide]
methanandamide binding (agonist alone, no modulator): did not bind | methanandamide binding (with 1 μM PSNCBAM-1): binding was restored
